Results on 2 compounds are retold here after patent publication US12532889B2, “Herbicidal compositions comprising glufosinate” (BASF SE, priority 2023, dated 2026).

Several values for one entry are separate records, joined by “and”; a condition that tells them apart may be missing. Identical values can stand only once.

Experiment in all cases: Post-emergence application in field trials (Example A)
Common to all, as to type: in vivo

The test system of assay [1] is DIGSA (Digitaria sanguinalis). As to conditions: height 10-15 cm. Here is the method: (§1) In the examples below, using the method of S. R. Colby (1967) “Calculating synergistic and antagonistic responses of herbicide combinations”, Weeds 15, p. 22ff., the value E, which is expected if the activity of the individual active compounds is only additive, was calculated:
(§2) [formula] • where • X=percent activity using active herbicide A at an application rate a; • Y=percent activity using active herbicide B (e.g. glufosinate) at an application rate b; • E=expected activity (in %) by A+B at application rates a+b.
(§3) If the value found experimentally is higher than the value E calculated according to Colby, a synergistic effect is present.
(§4) On field test sites, natural weed infestation or seeded weeds were treated post-emergence of the weeds.
(§5) In the field trials, the weeds were treated as indicated below.
(§6) In the following experiments, the herbicidal activity for the individual herbicidal compositions (solo and mixture applications) was assessed at the indicated days after treatment (DAT). The assessments for the damage on undesired weeds caused by the composition was carried out using a scale from 0 to 100%, compared to the untreated control plants. Here, 0 means no damage and 100 means complete destruction of the plants.

For assay [2], the system named is ECHCG (Echinocloa crus-galli). To be noted: growth stage 23-30, height 15-20 cm. Here is the method: as §1, §2, §3, §4, §5, §6
The subject of a further assay is GLXMA (Glycine max). To be noted: 42 DAT, growth stage 13, height 5-10 cm. Here is the method: as §1, §2, §3, §4, §5, §6
Assay [3] deals with HORVW (Hordeum vulgare (winter barley)). As to conditions: growth stage 23-29, height 20-25 cm. Here is the method:
as §1, §2, §3, §4, §5, §6

For assay [4], the system named is LOLMU (Lolium multiflorum). To be noted: growth stage 22-25, height 20-25 cm. Here is the method: as §1, §2, §3, §4, §5, §6
Assay [5] concerns SETVE (Setaria verticillata). As to conditions: 42 DAT; C-4 12.5 g ai/ha; growth stage 21-23; height 8-16 cm. Here is the method: as §1, §2, §3, §4, §5, §6
The next assay concerns ZEAMX (Zea mays). As to conditions: C-4 12.5 g ai/ha, growth stage 15-16. Here is the method: as §1, §2, §3, §4, §5, §6

For the compound `C#CCN1C(=O)C(F)(F)Oc2cc(F)c(-n3c(=O)n(C)c(=S)n(C)c3=O)cc21` [C-4, trifludimoxazin], the “% Herbicidal activity” value in assay [1] (7 DAT, C-4 12.5 g ai/ha, growth stage 22) came to 40%; in assay [1] (21 DAT, C-4 12.5 g ai/ha, growth stage 22) it was 40%; in assay [1] (41 DAT, C-4 12.5 g ai/ha, growth stage 22) it was 25%; in assay [1] (42 DAT, C-4 12.5 g ai/ha, growth stage 22), 25%; in assay [2] (7 DAT, C-4 12.5 g ai/ha), 40%; in assay [2] (21 DAT, C-4 12.5 g ai/ha), 20%. Further, the “% Herbicidal activity” value is 40% and 20% in assay [2] (28 DAT, C-4 12.5 g ai/ha); 60% with GLXMA (Glycine max) (C-4 12.5 g ai/ha); 40% and 30% in assay [3] (7 DAT, C-4 12.5 g ai/ha); 30% in assay [3] (21 DAT, C-4 12.5 g ai/ha); 40% in assay [4] (7 DAT, C-4 12.5 g ai/ha); 30% in assay [4] (28 DAT, C-4 12.5 g ai/ha). The “% Herbicidal activity” value in assay [5] is 25%; in the assay on ZEAMX (Zea mays) (21 DAT, height 27-33 cm), 30%; in the assay on ZEAMX (Zea mays) (28 DAT, height 50-60 cm), 30%; with ZEAMX (Zea mays) (42 DAT, height 27-33 cm), 25% and 20%.

For the compound `CC(C)N(C)S(=O)(=O)NC(=O)c1cc(-n2c(=O)cc(C(F)(F)F)n(C)c2=O)c(F)cc1Cl` [C-1, saflufenacil], the “% Herbicidal activity” value in assay [1] (20 DAT, C-1 12.5 g ai/ha, growth stage 21-22) turned out to be 20%; in assay [2] (7 DAT, C-1 12.5 g ai/ha), 20%; in assay [2] (28 DAT, C-1 12.5 g ai/ha), 20%; with GLXMA (Glycine max) (C-1 12.5 g ai/ha), 60%; in assay [3] (7 DAT, C-1 12.5 g ai/ha), 20%; in assay [4] (7 DAT, C-1 12.5 g ai/ha), 20%. Moreover, the “% Herbicidal activity” value in assay [4] (28 DAT, C-1 12.5 g ai/ha) came to 20%.
